The values that follow come from US9457031B2, “Antibacterial protein kinase inhibitors” (priority 2012, dated 2016).

In experiment [1] the test system is M. tb. It counts as cell-based, Mycobacterium tuberculosis. Particulars: 5 μM concentration against M. tb during 72 h; FIGS. 4a and 4b.
Experiment [2] deals with M. tb. Briefly: colony-forming unit (CFU) assay to determine bacterial survival. It counts as cell-based, Mycobacterium tuberculosis. The conditions noted are these: compared to the parent OSU-03012 and the other derivatives; FIG. 1.
Experiment [3] deals with M. smegmatis. It counts as cell-based. The conditions noted are these: compared to the parent OSU-03012 and the other derivatives; FIG. 1.

Regarding `CNC(=O)CCc1cc(-c2ccc(-c3ccc(C(F)(F)F)cc3)cc2)n(-c2ccc(NC(=O)c3cccnc3)cc2)n1` [cpd2-24-7, N-(4-(3-(3-(methylamino)-3-oxopropyl)-5-(4′-(trifluoromethyl)-[1,1′-biphenyl]-4-yl)-1H-pyrazol-1-yl)phenyl)nicotinamide], the “in vitro antimycobacterial activity upon screening of cpd2-24 derivatives” value in experiment [1] is “particularly effective”.

`CNC(=O)CCc1cc(-c2ccc(-c3ccc(C(F)(F)F)cc3)cc2)n(-c2ccc(NC(=O)N3CCOCC3)cc2)n1` [cpd2-24-3, N-(4-(3-(3-(methylamino)-3-oxopropyl)-5-(4′-(trifluoromethyl)-[1,1′-biphenyl]-4-yl)-1H-pyrazol-1-yl)phenyl)morpholine-4-carboxamide]: the “in vitro antimycobacterial activity upon screening of cpd2-24 derivatives” value in experiment [1] was “particularly effective”.

With `CNC(=O)CCc1cc(-c2ccc(-c3ccc(C(F)(F)F)cc3)cc2)n(-c2ccc(NC(=O)c3ccccn3)cc2)n1` [cpd2-24-6, N-(4-(3-(3-(methylamino)-3-oxopropyl)-5-(4′-(trifluoromethyl)-[1,1′-biphenyl]-4-yl)-1H-pyrazol-1-yl)phenyl)picolinamide], in experiment [1], the “in vitro antimycobacterial activity upon screening of cpd2-24 derivatives” value is given as “particularly effective”.

With `CNC(=O)CCc1cc(-c2ccc(-c3ccc(C(F)(F)F)cc3)cc2)n(-c2ccc(NC(=O)c3ccncc3)cc2)n1` [cpd2-24-5, N-(4-(3-(3-(methylamino)-3-oxopropyl)-5-(4′-(trifluoromethyl)-[1,1′-biphenyl]-4-yl)-1H-pyrazol-1-yl)phenyl)isonicotinamide], the “in vitro antimycobacterial activity upon screening of cpd2-24 derivatives” value in experiment [1] is “particularly effective”.

Turning to `NS(=O)(=O)Nc1ccc(-n2nc(C(F)(F)F)cc2-c2ccc3c(ccc4ccccc43)c2)cc1` [cpd-2], the “killing of M. tb (bacterial survival, CFU)” value in experiment [2] is “significantly kill”. In addition, the “killing of M. smegmatis (bacterial survival, CFU)” value in experiment [3] is listed as “significantly kill”.
